Tests used:
[1] = test system: mice; assay: Acute toxicity by intravenous administration; type: in vivo; conditions: intravenously administered to tail vein in ten mice at the dose of 30 mg/kg
Method: On the other hand, it was confirmed that the acute toxicity of all extent of the compounds of the present invention was more than 30 mg/kg by intravenous administration. Therefore, glycerol derivatives of the present invention may be considered to be sufficiently safe and suitable for medical use. For example, the mortality (dead/used) in glycerol derivatives of the present invention, i.e. compounds prepared in Example l(g), l(v), 5(d), 12(b), 12(n), 12(o), 12(s) and 12(x) was 0/10, 0/10, 0/10, 1/10/ 0/10, 0/10, 0/10 and 0/10, respectively, when each glycerol compound was intravenously administered to tail vein in ten mice at the dose of 30 mg/kg.

[2] = molecular target: phospholipase A2 obtained from lung of guinea-pig; assay: Inhibitory effect on phospholipase A2 (modified method of Shakir, 14C-arachidonyl phosphatidylcholine substrate); type: biochemical; conditions: enzyme from lung of guinea-pig; substrate L-B-[1-14C]-arachidonyl-a'-stearoyl-phosphatidylcholine
Method: (2) Inhibitory effect on phospholipase A
The activity of the enzyme was examined by modification of the method of Shakir by using L-B-[1-^14C]- arachidonyl-a'-stearoyl-phosphatidylcholine as substrate and phospholipase A2 obtained from lung of guinea-pig as enzyme [cf. Anal. Biochem., 114, 67 (1981)].
(§1) The evaluation is conducted using the concentration of compounds of the present invention required to produce a 50% inhibition of each effect, i.e. IC50.

[3] = molecular target: phospholipase C obtained from lung of guinea-pig; assay: Inhibitory effect on phospholipase C (method of Rittenhouse-Simmons, 3H-labelled phosphatidyl-inositol substrate); type: biochemical; conditions: enzyme from lung of guinea-pig; substrate 3H-myoinositol labelled phosphatidyl-inositol from rat liver microsome
Method: (3) Inhibitory effect on phospholipase C
The activity of the enzyme was examined by the method of Rittenhouse-Simmons by using ^3H-myoinsitol labelled phosphatidyl-inositol biosynthesized in microsome of liver in rat as substrate and phospholipase C obtained from lung of guinea-pig as enzyme [cf. J. Clin. Invest., 63, 580 (1979)].
as §1

[4] = molecular target: PAF-induced platelet aggregation (Cavia porcellus, UniProt P21556); assay: Inhibitory effect on PAF-induced platelet aggregation (method of Born, platelet rich plasma); type: cell-based; conditions: platelet rich plasma from male guinea-pig; PAF (10 nM)-induced aggregation
Method: (1) Inhibitory effect on PAF-induced platelet aggregation
A mixture of 9 parts of blood obtained from male guinea-pig, and one part of 3.8X trisodium citrate was centrifuged for 10 minutes at 120 x g at room temperature to obtain platelet rich plasma (PRP). Using obtained PRP, PAF (lOnM)-induced aggregation was determined by the method of Born [cf. J. Physiol., 162, 67 (1962)].
as §1

PAF-induced platelet aggregation, sequence (P21556 whole entry): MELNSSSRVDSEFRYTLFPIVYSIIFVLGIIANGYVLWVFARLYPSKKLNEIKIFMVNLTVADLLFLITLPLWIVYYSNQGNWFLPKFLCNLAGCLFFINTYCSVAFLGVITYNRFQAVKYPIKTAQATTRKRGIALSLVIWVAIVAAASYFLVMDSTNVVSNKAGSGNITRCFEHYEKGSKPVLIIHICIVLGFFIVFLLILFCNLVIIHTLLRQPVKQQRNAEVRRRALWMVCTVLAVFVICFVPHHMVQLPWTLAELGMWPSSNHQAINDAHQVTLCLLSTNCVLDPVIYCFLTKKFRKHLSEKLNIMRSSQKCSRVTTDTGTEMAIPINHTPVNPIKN

Row | Compound | mortality (dead/used) [1] | IC50 [2] [µM] | IC50 [3] [µM] | IC50 [4] [µM]
1 | CCCCCCCCCCCCCCCCOCC(COCCCC[N+](C)(C)C)OCc1ccccc1 (racemic) [1 (g), (2RS)-l-0-hexadecyl-2-0-benzyl-3-0-[4-(N,N,N-trimethylammonio)butyl]glycerol chloride] | 0/10 | 130 | 180 | 
2 | CCCCCCCCCCCCCCCCOCC(COC(=O)CCC[N+](C)(C)C)OCc1ccccc1 (racemic) [1 (v), (2RS)-1-0-hexadecyl-2-0-benzyl-3-0-[4-(N,N,N-trimethylammonio)-butyryl]glycerol halide] | 0/10 |  |  | 
3 | CCCCCCCCCCCCCCCCOCC(O)COCCCC[N+](C)(C)C (racemic) [5 (d), (2RS)-1-0-hexadecyl-3-0-[4-(N,N,N-trimethylammonio)butyl]glycerol halide] | 0/10 | 240 | 660 | 
4 | CCCCCCCCCCCCCCCCSCC(COCCCC[N+](C)(C)C)OCc1ccccc1 (racemic) [12 (b), (2RS)-1-hexadecylthio-2-0-benzyl-3-0-[4-(N,N,N-trimethylammanio)-butyl]-2,3-propanediol halide] | 1/10 |  |  | 
5 | CCCCCCCCCCCCCCCCOCC(COCCCC[N+](C)(C)C)OC(=O)c1ccccc1 (racemic) [12 (n), (2RS)-l-0-hexadecyl-2-0-benzoyl-3-0-[4-(N,N,N-trimethylammonio)-butyl]glycerol halide] | 0/10 |  |  | 
6 | CCCCCCCCCCCCCCCCOCC(COCCCC[N+](C)(C)C)OC(=O)NC (racemic) [12 (o), (2RS)-1-0-hexadecyl-2-0-(N-methylcarbaraoyl)-3-0-[4-(N,N,N-trimethylammonio)butyl]glycerol halide] | 0/10 |  |  | 
7 | CCCCCCCCCCCCCCCCOCC(COCCCC[N+](C)(C)C)SCC (racemic) [12 (s), (2RS)-l-0-hexadecyl-2-ethylthio-3-0-[4-(N,N,N-trimethylammonio)-butyl]-1,3-propanediol halide] | 0/10 |  |  | 
8 | (2RS)-1-0-hexadecyl-2-[ethoxy(thiocarbonyl)thio]-3-0-[4-(N,N,N-trimethylammonio)butyl]-1,3-propanediol halide [12 (x)] | 0/10 | 240 | 200 | 3.8

Reference: EP0094586A2, “Glycerol derivatives, process for preparing same and pharmaceutical composition containing same” (ONO PHARMACEUTICAL CO., LTD., priority 1982, dated 1983)
